Experimental data from patent publication EP0603240B1, “SAFENING HERBICIDAL PYRAZOLYLSULFONYLUREAS” (priority 1991, dated 1993).

Experiments:
Format in all cases: in vivo
corn [1] = assay: Example 23, Procedure II: Antidote Nos. 15 and 17-21 against Herbicide No. 1, 13 days after application; settings: 13 days after application
Procedure: (§1) Containers were filled and compacted with a fumigated silt loam top soil to a depth of about 1.3 cm from the top of the container. A first container was designated as an untreated control, a second container was designated as a herbicide control, and a third container was designated as a herbicide + antidote test container. Each of the containers was seeded with a crop species. A measured amount of herbicide dispersed or dissolved in acetone was applied to a measured quantity of soil. To this same quantity of soil treated with herbicide, there was added a measured amount of antidote dispersed or dissolved in acetone. The quantity of soil treated with the herbicide and antidote was thoroughly mixed to incorporate the herbicide and antidote in the soil uniformly. The seed bed in the third container of soil was covered with the soil treated with the herbicide and antidote and the container was leveled. For each test series, the seed beds of the first and second containers were likewise covered by soil layers. the cover layer of the first container was not treated with herbicide or antidote.
(§2) The containers were then placed on a bench in a greenhouse and sub-irrigated as required for the duration of the test. […] Plant response is measured in terms of percent injury. Antidote efficacy is indicated as the difference in plant injury by the herbicide(s) without the antidote and with the antidote.
(§3) This procedure is the same as Procedure I, but modified in the manner that after incorporation of the chemicals (herbicide and antidote) the containers with the covered seedbed were treated with an initial overhead irrigation equivalent to 0.6 cm rainfall, then subsequently sub-irrigated as required on greenhouse benches.
(§4) In other greenhouse tests, using Procedure II described above, the safening efficacy of Antidote Nos. 15 and 17-21 was evaluated against Herbicide No. 1 in corn in the presence of Giant foxtail (Setaria fabergi) and Velvetleaf (Abutilon theophrasti) as representative annual monocotyledonous and dicotyledonous weeds, respectively.
(§5) Test results are shown in Tables 23A and 23B wherein the indicated plant inhibition represents the average of duplicate replications, with observations being made thirteen (13) days after application of the chemicals. Giant foxtail and Velvetleaf are represented by the symbols "GFT" and "VL", respectively. The data in Table 23A show the test results using the antidotes at 2.24 kg/ha, whereas in Table 23B, the antidotal rate was reduced to 0.56 kg/ha.

[2] = system: Giant foxtail (Setaria fabergi); assay: as above
Procedure: as §1, §2, §3, §4, §5

[3] = system: velvetleaf (Abutilon theophrasti); assay: as above
Procedure: as §1, §2, §3, §4, §5

corn [4] = assay: Example 24, Procedure II: Herbicide No. 1 + co-herbicides Nos. 4, 6, 7, 12 with Antidote Nos. 15 and 17-21
Outline: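 Greenhouse pots, herbicide No. 1 plus co-herbicides and antidote in acetone incorporated into silt loam soil covering the corn seed bed, with giant foxtail and velvetleaf; initial overhead irrigation equal to 0.6 cm rainfall, then sub-irrigation. Antidote at 2.24 kg/ha; percent injury read 13 days after application, duplicate average.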

[5] = Table 23A, Herb. No. 1 0.14 Kg/Ha + antidote 2.24 Kg/ha
[6] = Table 23A, Herb. No. 1 0.28 Kg/Ha + antidote 2.24 Kg/ha
[7] = Table 23A, Herb. No. 1 0.56 Kg/Ha + antidote 2.24 Kg/ha
[8] = Table 23A, Herb. No. 1 1.12 Kg/Ha + antidote 2.24 Kg/ha
[9] = Table 23B, Herb. No. 1 0.14 Kg/Ha + antidote 0.56 Kg/ha
[10] = Table 23B, Herb. No. 1 0.28 Kg/Ha + antidote 0.56 Kg/ha
[11] = Table 23B, Herb. No. 1 0.56 Kg/Ha + antidote 0.56 Kg/ha
[12] = Table 23B, Herb. No. 1 1.12 Kg/Ha + antidote 0.56 Kg/ha
[13] = Herb. No. 1 0.07 Kg/ha + Co-Herb. No. 4 1.12 Kg/ha + antidote 2.24 Kg/ha
[14] = Herb. No. 1 0.07 Kg/ha + Co-Herb. No. 6 0.14 Kg/ha + antidote 2.24 Kg/ha
[15] = Herb. No. 1 0.07 Kg/ha + Co-Herb. No. 7 0.28 Kg/ha + antidote 2.24 Kg/ha
[16] = Herb. No. 1 0.07 Kg/ha + Co-Herb. No. 12 0.28 Kg/ha + antidote 2.24 Kg/ha
[17] = Herb. No. 1 0.14 Kg/ha + Co-Herb. No. 4 1.12 Kg/ha + antidote 2.24 Kg/ha
[18] = Herb. No. 1 0.14 Kg/ha + Co-Herb. No. 6 0.14 Kg/ha + antidote 2.24 Kg/ha
[19] = Herb. No. 1 0.14 Kg/ha + Co-Herb. No. 7 0.28 Kg/ha + antidote 2.24 Kg/ha
[20] = Herb. No. 1 0.14 Kg/ha + Co-Herb. No. 12 0.28 Kg/ha + antidote 2.24 Kg/ha
[21] = Herb. No. 1 0.28 Kg/ha + Co-Herb. No. 4 1.12 Kg/ha + antidote 2.24 Kg/ha
[22] = Herb. No. 1 0.28 Kg/ha + Co-Herb. No. 6 0.14 Kg/ha + antidote 2.24 Kg/ha
[23] = Herb. No. 1 0.28 Kg/ha + Co-Herb. No. 7 0.28 Kg/ha + antidote 2.24 Kg/ha
[24] = Herb. No. 1 0.28 Kg/ha + Co-Herb. No. 12 0.28 Kg/ha + antidote 2.24 Kg/ha
[25] = Herb. No. 1 0.56 Kg/ha + Co-Herb. No. 4 1.12 Kg/ha + antidote 2.24 Kg/ha
[26] = Herb. No. 1 0.56 Kg/ha + Co-Herb. No. 6 0.14 Kg/ha + antidote 2.24 Kg/ha
[27] = Herb. No. 1 0.56 Kg/ha + Co-Herb. No. 7 0.28 Kg/ha + antidote 2.24 Kg/ha
[28] = Herb. No. 1 0.56 Kg/ha + Co-Herb. No. 12 0.28 Kg/ha + antidote 2.24 Kg/ha

CCSC(=O)COC(c1ccccc1)c1ccccc1 [compound 21]
% Inhibition Corn (corn [1]; [5]): 0% | % Inhibition Corn (corn [1]; [6]): 0% | % Inhibition Corn (corn [1]; [7]): 5% | % Inhibition Corn (corn [1]; [8]): 30% | % Inhibition Corn (corn [1]; [9]): 0% | % Inhibition Corn (corn [1]; [10]): 5% | % Inhibition Corn (corn [1]; [11]): 20% | % Inhibition Corn (corn [1]; [12]): 35% | % Inhibition GFT [2, 5]: 10% | % Inhibition GFT [2, 6]: 20% | % Inhibition GFT [2, 7]: 35% | % Inhibition GFT [2, 8]: 70% | % Inhibition GFT [2, 9]: 20% | % Inhibition GFT [2, 10]: 45% | % Inhibition GFT [2, 11]: 50% | % Inhibition GFT [2, 12]: 75% | % Inhibition VL [3, 5]: 85% | % Inhibition VL [3, 6]: 85% | % Inhibition VL [3, 7]: 95% | % Inhibition VL [3, 8]: 95% | % Inhibition VL [3, 9]: 85% | % Inhibition VL [3, 10]: 90% | % Inhibition VL [3, 11]: 90% | % Inhibition VL [3, 12]: 95% | % Inhibition Corn (corn [4]; [13]): 5% | % Inhibition Corn (corn [4]; [14]): 0% | % Inhibition Corn (corn [4]; [15]): 0% | % Inhibition Corn (corn [4]; [16]): 0% | % Inhibition Corn (corn [4]; [17]): 5% | % Inhibition Corn (corn [4]; [18]): 5% | % Inhibition Corn (corn [4]; [19]): 0% | % Inhibition Corn (corn [4]; [20]): 5% | % Inhibition Corn (corn [4]; [21]): 0% | % Inhibition Corn (corn [4]; [22]): 5% | % Inhibition Corn (corn [4]; [23]): 5% | % Inhibition Corn (corn [4]; [24]): 10% | % Inhibition Corn (corn [4]; [25]): 5% | % Inhibition Corn (corn [4]; [26]): 10% | % Inhibition Corn (corn [4]; [27]): 15% | % Inhibition Corn (corn [4]; [28]): 20%

O=C(O)COC(c1ccccc1)c1ccccc1 [compound 18]
% Inhibition Corn (corn [1]; [5]): 0% | % Inhibition Corn (corn [1]; [6]): 0% | % Inhibition Corn (corn [1]; [7]): 10% | % Inhibition Corn (corn [1]; [8]): 10% | % Inhibition Corn (corn [1]; [9]): 5% | % Inhibition Corn (corn [1]; [10]): 5% | % Inhibition Corn (corn [1]; [11]): 20% | % Inhibition Corn (corn [1]; [12]): 30% | % Inhibition GFT [2, 5]: 15% | % Inhibition GFT [2, 6]: 30% | % Inhibition GFT [2, 7]: 65% | % Inhibition GFT [2, 8]: 70% | % Inhibition GFT [2, 9]: 15% | % Inhibition GFT [2, 10]: 20% | % Inhibition GFT [2, 11]: 60% | % Inhibition GFT [2, 12]: 60% | % Inhibition VL [3, 5]: 90% | % Inhibition VL [3, 6]: 95% | % Inhibition VL [3, 7]: 95% | % Inhibition VL [3, 8]: 95% | % Inhibition VL [3, 9]: 90% | % Inhibition VL [3, 10]: 95% | % Inhibition VL [3, 11]: 90% | % Inhibition VL [3, 12]: 95% | % Inhibition Corn (corn [4]; [13]): 5% | % Inhibition Corn (corn [4]; [14]): 0% | % Inhibition Corn (corn [4]; [15]): 0% | % Inhibition Corn (corn [4]; [16]): 0% | % Inhibition Corn (corn [4]; [17]): 5% | % Inhibition Corn (corn [4]; [18]): 0% | % Inhibition Corn (corn [4]; [19]): 10% | % Inhibition Corn (corn [4]; [20]): 0% | % Inhibition Corn (corn [4]; [21]): 5% | % Inhibition Corn (corn [4]; [22]): 5% | % Inhibition Corn (corn [4]; [23]): 5% | % Inhibition Corn (corn [4]; [24]): 10% | % Inhibition Corn (corn [4]; [25]): 10% | % Inhibition Corn (corn [4]; [26]): 20% | % Inhibition Corn (corn [4]; [27]): 10% | % Inhibition Corn (corn [4]; [28]): 15%
